According to article PMC6627486, “Ipomoeassin F Binds Sec61α to Inhibit Protein Translocation” (Journal of the American Chemical Society, 2019):
Read-outs that look alike come from different tables or passages of the source.

Legend:
Sec61α = test: Competition with CT7 photo-affinity labeling of Sec61α in sheep rough microsomes; format: binding; conditions: 10 μM compound, 100 nM CT7, sheep rough microsomes
Description: MDA-MB-231 cells were seeded on fibronectin-coated coverslips at 70% confluency in a 48-well plate and cultured at 37 °C and 5% CO2. After 24 h, culture medium was replaced with fresh medium containing a 20 µM competitor or an equal volume of DMSO vehicle for 30 min at 37 °C and 5% CO2, followed by addition of 0.2 µM (final concentration) fluorescent probe 12. After 1 h incubation at 37 °C and 5% CO2, the coverslips were mounted onto a glass slide with a mounting medium with or without 0.5 µg/ml DAPI.
The fluorescent images were acquired with a confocal microscope (Leica TCS SP5) using 405 nm excitation and 562 nm excitation. For the ER co-localization studies, 1 uM ER-Tracker™ Blue-White DPX was added to the medium after 1 h incubation with probe 12. After 5 min incubation, the coverslips were mounted onto a glass slide and the images were acquired as described above.
CT7 photo-affinity labeling and click chemistry were done as previously described.14 Briefly, SRMs (sheep rough microsomes, isolated as described in reference15) containing 100 nM Sec61 were treated with 10 µM ipomoeassin F/mycolactone or 1% DMSO for 30 min at 0°C, followed by incubation with 100 nM CT7 for 10 min RT. Samples were then photolyzed for 10 min and crosslinked proteins were detected by click chemistry, SDS-PAGE, and in-gel fluorescent scanning (Typhoon Trio, GE Healthcare). […]

HEK S82P = test: Alamar Blue viability, HEK293 expressing Sec61α S82P; format: cell-based, human; conditions: read-out: cell viability IC50
Description: AlamarBlue Cytotoxicity Assay […]
Compounds were diluted from a DMSO stock into culture medium as described above. Cells were treated for 96 h, then viability measured with AlamarBlue, detected using the conditions described but with a BMG Fluostar Optima Microplate Reader. The percentage of viability compared to the negative control (DMSO-treated cells) was determined. GraphPad Prism 6 software was used to make a plot of % viability versus sample […]
HCT116 and HEK293T. Viable cells were counted using an automated cell counter (BioRad TC20) before each experiment. Experiments were performed either in quadruplicate or duplicate sets. First 100µ l of HCT116 or HEK293T cells at a density of 25,000 cells/m l was seeded in black wall, clear bottom, 96-well plates (2500 cells/well) (Viewplate-96 Perkin Elmer). HEK293 FRT Trex cells were seeded in complete medium supplemented to 1 μg/ml Doxycycline to induce expression of Sec61a constructs. Cells were then incubated at 37 °C and 5% CO2 for 24 h. The compounds were dissolved in DMSO to make drug stocks (10 mM). […] Emission of each well at 620 nm was detected by a microplate reader (Perkin Elmer EnSpire) at excitation 580 nm. The percentage of viability compared to the negative control (DMSO -treated cells) was determined. […]

HCT D60G = test: Alamar Blue viability, HCT116 Sec61α D60G (96 h); format: cell-based, human
Description: AlamarBlue Cytotoxicity Assay
MDA-MB-231, MCF-10A and HCT116. Viable cells were counted with a hemocytometer immediately before each experiment . Experiments were done in triplicate. First, 100 μL of MDA-MB-231 cells or MCF-10A cells at the density of 50,000 cells/mL was seeded in a 96-well plate (5,000 cells/well) and then incubated at 37 °C and 5% CO2 for 24 h. The compounds were dissolved in DMSO (dimethyl sulfoxide) to make drug stocks (10 mM). The stock solutions were diluted with the complete DMEM high glucose culture medium to make a series of gradient fresh working solutions right before each test. Subsequently, the cells were treated with 100 μL of the freshly made gradient working solution in a total volume of 200 μL/well for 72 h. After that, the media were discarded and 200 μL of the fresh complete medium containing 10% of AlamarBlue (resazurin) stock solution was added to each well. The plate was then incubated at 37 °C and 5% CO2 for another 3 h. Emission of each well at 620 nm was detected by a microplate reader (BioTek Synergy H1) at excitation 580 nm. For HCT116 WT and mutant lines, cells were seeded at 1000 cells/ well in complete McCoys medium. […] Cells were treated for 96 h, then viability measured with AlamarBlue, detected using the conditions described but with a BMG Fluostar Optima Microplate Reader. […]
was determined. […]

[1] = system: several cancer-derived cell lines; parameters: method as in PMID 19697385; conditions: cited from earlier work

For `C/C=C(\C)C(=O)O[C@@H]1[C@@H](O)[C@@H]2O[C@H]3[C@H](O[C@@H](CCCCC)CCCCCCC(=O)CCC(=O)OC[C@@H](O2)[C@H]1OC(=O)/C=C/c1ccccc1)O[C@H](C)[C@H](OC(C)=O)[C@@H]3O` [ipomoeassin F], the “competition with CT7 photo-cross-linking to Sec61α” value (Sec61α) was “similarly potent competition”, the IC50 (HEK S82P; Homo sapiens, HEK293, 72 h) was greater than 10000 nM and the IC50 (HCT D60G; Homo sapiens, HCT-116, read-out: cell viability IC50) was 88.1 ± 10.3 nM. For the same compound, the “IC50 values against several cancer-derived cell lines” value [1] was “single-digit nanomolar”.
For `CC(=C\C=C\C(C)=C\[C@H](O)[C@@H](O)C[C@H](C)O)/C=C(C)/C=C/C(=O)O[C@H]1CCCC(=O)O[C@@H]([C@@H](C)C/C(C)=C/[C@@H](C)[C@H](O)C[C@@H](C)O)C/C=C(\C)C[C@@H]1C` [mycolactone, reference compound], the “competition with CT7 photo-cross-linking to Sec61α” value (Sec61α) was “efficiently competes with CT7”, the IC50 (HEK S82P; 72 h) was 1160 nM and the IC50 (HCT D60G; read-out: cell viability IC50) was greater than 330 nM.
